Assay results from publication PMC11134350, “Substrate Promiscuity of Thermoplasma acidophilum Malic Enzyme for CO2 Fixation Reaction” (JACS Au, 2024).
Read-outs that look alike come from different tables or passages of the source.

Tested on: T1, TaME (Thermoplasma acidophilum NADP+-malic enzyme)
T1 construct: dimer (from structural model); Asn304 and Thr46* named at active site
Test: NADPH formation, oxidative decarboxylation, Michaelis-Menten
Format: biochemical
Settings: NADP+ as cofactor, standard assay conditions in supplement section 1.3.1, read-out: Km(substrate)
Text: NADPH formation, oxidative decarboxylation, Michaelis-Menten on TaME (Thermoplasma acidophilum NADP+-malic enzyme)

Row | Km (0.05-1.0 mM malate) [µM] | Km (0.03-0.60 mM isocitrate) [µM] | SMILES
1 | 879 ± 149 |  | O=C(O)C[C@H](O)C(=O)O [1b, Malate]
2 |  | 23.7 ± 5.2 | O=C(O)C[C@H](C(=O)O)[C@@H](O)C(=O)O [2b, Isocitrate]
